Data: patent publication US12240840B2, “Amide-substituted heterocyclic compounds for the treatment of conditions related to the modulation of IL-12, IL-23 and/or IFN-alpha” (BRISTOL-MYERS SQUIBB COMPANY, priority 2018, dated 2025)

Each molecule was assayed on IFNα-induced pSTAT5 (pY694) in CD3 positive cells of human whole blood (assay: IFNα-Induced STAT Phosphorylation in Human Whole Blood). Details: 1 h compound incubation, 1000 U/mL recombinant human IFNα A/D for 15 min, pSTAT5 in CD3 positive population, read-out: Human WB IFNα-Induced Stat Phosph. (IC50).
Type: cell-based
In short: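 Read-out is median fluorescence intensity of pSTAT5 (pY694) in the CD3-positive gate, by flow cytometry after fix/lyse and permeabilization. Before that, whole human blood anticoagulated with EDTA or ACD-A received compound for an hour and 1000 U/mL IFNα A/D for 15 min.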

Row | SMILES | IC50
1 | [2H]C([2H])([2H])NC(=O)c1nnc(NC(=O)C2CC2)cc1Nc1cccc(-c2cnn(CCNC(C)=O)c2)c1OC [Example 556, 4-((3-(1-(2-acetamidoethyl)-1H-pyrazol-4-yl)-2-methoxyphenyl)amino)-6-(cyclopropanecarboxamido)-N-(methyl-d3)pyridazine-3-carboxamide] | 1070 nM

Same assay, conditions: Homo sapiens, 1 h compound incubation, 1000 U/mL recombinant human IFNα A/D for 15 min, pSTAT5 in CD3 positive population, read-out: Human WB IFNα-Induced Stat Phosph. (IC50)

Row | SMILES | IC50
2 | COCc1nc(-c2cccc(Nc3cc(NC(=O)C4CC4)nnc3C(N)=O)c2OC)no1 [Example 67] | 60 nM
3 | [2H]C([2H])([2H])NC(=O)c1nnc(NC(=O)C2CC2)cc1Nc1cccc(-c2ncc(C(=O)NCc3ccccc3)s2)c1OC [Example 289] | 150 nM
4 | [2H]C([2H])([2H])NC(=O)c1nnc(NC(=O)C2CC2)cc1Nc1cccc(-c2nc(CNC(=O)CN3CCN(C(=O)OC(C)(C)C)CC3)no2)c1OC [Example 161] | 9420 nM
5 | COc1c(Nc2cc(NC3CC3)nnc2C(N)=O)cccc1-c1noc(CNS(C)(=O)=O)n1 [Example 118] | 3800 nM
6 | [2H]C([2H])([2H])NC(=O)c1nnc(NC(=O)C2CC2)cc1Nc1cccc(-c2cc(C(=O)N3CCCCC3)n(C)n2)c1OC [Example 479] | 110 nM
7 | [2H]C([2H])([2H])NC(=O)c1nnc(NC(=O)C2CC2)cc1Nc1cccc(-c2nc(C)c(C(=O)NCCOC)s2)c1OC [Example 366] | 510 nM
8 | [2H]C([2H])([2H])NC(=O)c1nnc(NC(=O)C2CC2)cc1Nc1cccc(-c2nc(CN3CCCC3)no2)c1OC [Example 209] | 1370 nM
9 | [2H]C([2H])([2H])c1c(NC(=O)C2CC2)nnc(C(N)=O)c1Nc1cccc(-c2nc(CN3CCN(C(C)=O)CC3)no2)c1OC [Example 120, 4-((3-(3-((4-acetylpiperazin-1-yl)methyl)-1,2,4-oxadiazol-5-yl)-2-methoxyphenyl)amino)-6-(cyclopropanecarboxamido)-trideuteromethylpyridazine-3-carboxamide] | 150 nM
10 | COc1c(Nc2cc(NCC3CC3)nnc2C(N)=O)cccc1-c1noc(CNS(C)(=O)=O)n1 [Example 119] | > 10000 nM
11 | [2H]C([2H])([2H])NC(=O)c1nnc(NC(=O)C2CC2)cc1Nc1cccc(-c2nc(/C=C/c3ccccc3)no2)c1OC [Example 236] | > 10000 nM
12 | [2H]C([2H])([2H])NC(=O)c1nnc(Nc2ccc(C)nn2)cc1Nc1cccc(-c2cn(CCN3CCOCC3)nn2)c1OC [Example 424] | 200 nM
13 | [2H]C([2H])([2H])NC(=O)c1nnc(NC(=O)C2CC2)cc1Nc1cccc(-c2ncc(C(=O)N(C)C(C)C)s2)c1OC [Example 292] | 160 nM
14 | COc1c(Nc2cc(NC(=O)C3CC3)nnc2C(N)=O)cccc1-c1noc(CO)n1 [Example 70] | 14 nM
15 | [2H]C([2H])([2H])NC(=O)c1nnc(Nc2cc(C(C)(C)O)ccn2)cc1Nc1cc(F)cc(-c2cc(C(=O)N(C)C)n(C)n2)c1OC [Example 550] | 240 nM
16 | [2H]C([2H])([2H])NC(=O)c1nnc(NC(=O)C2CC2)cc1Nc1cccc(-c2nc(CN(CCOC)CCOC)no2)c1OC [Example 175] | 660 nM
17 | [2H]C([2H])([2H])NC(=O)c1nnc(NC(=O)C2CC2)cc1Nc1cc(F)cc(-c2cc(C(=O)N3CCC(c4ccccc4)CC3)n(C)n2)c1OC [Example 511] | 320 nM
18 | [2H]C([2H])([2H])NC(=O)c1nnc(NC(=O)C2CC2)cc1Nc1cccc(-c2nc(COCc3ccccc3)no2)c1OC [Example 144] | 1000 nM
19 | [2H]C([2H])([2H])NC(=O)c1nnc(NC(=O)C2CC2)cc1Nc1cccc(-c2nc(CN3CC4CN(C(=O)OC)CC4C3)no2)c1OC (stereo not shown) [Example 234] | 300 nM
20 | [2H]C([2H])([2H])NC(=O)c1cnc(NC(=O)C2CC2)cc1Nc1cccc(-c2nc(CN3CCOCC3)no2)c1OC [Example 125] | 60 nM
21 | [2H]C([2H])([2H])NC(=O)c1nnc(NC(=O)C2CC2)cc1Nc1cccc(-c2nc(CN3CCN(C(=O)C4(C#N)CC4)CC3)no2)c1OC [Example 133] | 100 nM
22 | [2H]C([2H])([2H])NC(=O)c1nnc(NC(=O)C2CC2)cc1Nc1cccc(-c2ccn(CCNC(=O)OC(C)(C)C)n2)c1OC [Example 464] | 1110 nM
23 | [2H]C([2H])([2H])NC(=O)c1nnc(NC(=O)C2CC2)cc1Nc1cccc(-c2ncc(C(=O)N3CCc4ccccc4C3)s2)c1OC [Example 298] | > 10000 nM
24 | [2H]C([2H])([2H])NC(=O)c1nnc(NC(=O)C2CC2)cc1Nc1cccc(-c2ncc(C(=O)NCCN3CCN(C)CC3)s2)c1OC [Example 322] | 80 nM
25 | [2H]C([2H])([2H])NC(=O)c1nnc(NC(=O)C2CC2)cc1Nc1cccc(-n2cc(CN3CCN(S(C)(=O)=O)CC3)nn2)c1OC [Example 4] | 660 nM
26 | [2H]C([2H])([2H])NC(=O)c1nnc(NC(=O)C2CC2)cc1Nc1cccc(-c2nc([C@H](NC(=O)OC(C)(C)C)[C@H](C)OC(C)(C)C)no2)c1OC [Example 206] | > 10000 nM
27 | [2H]C([2H])([2H])NC(=O)c1nnc(NC(=O)C2CC2)cc1Nc1cccc(-c2ncc(CNC(=O)OC)s2)c1OC [Example 266] | 2530 nM
28 | [2H]C([2H])([2H])NC(=O)c1nnc(NC(=O)C2CC2)cc1Nc1cccc(-c2ncc(C(=O)N3CC(=O)NC(=O)C3)s2)c1OC [Example 331] | 560 nM

Row | SMILES | IC50
29 | [2H]C([2H])([2H])NC(=O)c1cnc(Nc2ccc(OC)nn2)cc1Nc1cc(F)cc(-c2cc(C(=O)N(C)C)n(C)n2)c1OC [Example 551] | 50 nM
30 | [2H]C([2H])([2H])NC(=O)c1nnc(NC(=O)C2CC2)cc1Nc1cccc(-c2noc(CO)n2)c1OC [Example 69] | 30 nM
31 | [2H]C([2H])([2H])NC(=O)c1nnc(NC(=O)C2CC2)cc1Nc1cccc(-c2cnn(CCNS(C)(=O)=O)n2)c1OC [Example 434] | 160 nM
32 | COc1c(Nc2cc(NC(=O)C3CC3)nnc2C(N)=O)cccc1-c1nccs1 [Example 406] | 180 nM
33 | [2H]C([2H])([2H])NC(=O)c1nnc(NC(=O)C2CC2)cc1Nc1cccc(-c2ncc(C(=O)NCC(C)C)s2)c1OC [Example 310] | > 10000 nM
34 | [2H]C([2H])([2H])NC(=O)c1nnc(NC(=O)C2CC2)cc1Nc1cc(F)cc(-c2cc(C(=O)NCCCCC)n(C)n2)c1OC [Example 513] | > 10000 nM
35 | [2H]C([2H])([2H])NC(=O)c1nnc(NC(=O)C2CC2)cc1Nc1cccc(-c2cc(C(=O)N(C)CC)n(C)n2)c1OC [Example 539] | 120 nM
36 | [2H]C([2H])([2H])NC(=O)c1nnc(NC(=O)C2CC2)cc1Nc1cccc(-c2ncc(C(=O)NC[C@H]3CCCN3CC)s2)c1OC [Example 330] | 70 nM
37 | [2H]C([2H])([2H])NC(=O)c1nnc(NC(=O)C2CC2)cc1Nc1cccc(-c2ncc(CNS(C)(=O)=O)s2)c1OC [Example 265] | 530 nM
38 | COc1c(Nc2cc(NC(=O)C3CC3)nnc2C(N)=O)cccc1-c1ncc(C(=O)N2CCC(CCO)CC2)s1 [Example 400] | 30 nM
39 | [2H]C([2H])([2H])NC(=O)c1nnc(NC(=O)C2CC2)cc1Nc1cccc(-c2nc(C(C)(C)O)no2)c1OC [Example 186] | 790 nM
40 | [2H]C([2H])([2H])NC(=O)c1nnc(Nc2ccc(OC)nn2)cc1Nc1cccc(-c2nc(CN3CCOCC3)no2)c1OC [Example 238] | 80 nM
41 | [2H]C([2H])([2H])NC(=O)c1nnc(NC(=O)C2CC2)cc1Nc1cccc(-c2nc(C)c(C(=O)NCCCN(C)C)s2)c1OC [Example 357] | 880 nM
42 | [2H]C([2H])([2H])NC(=O)c1cnc(Nc2cc(C)ccn2)cc1Nc1cccc(-c2noc(COC)n2)c1OC [Example 99] | 40 nM
43 | COc1c(Nc2cc(NC(=O)C3CC3)nnc2C(N)=O)cccc1-c1noc([C@@H]2C[C@@H](O)CN2S(C)(=O)=O)n1 [Example 11] | 21 nM
44 | [2H]C([2H])([2H])NC(=O)c1nnc(NC(=O)C2CC2)cc1Nc1cccc(-c2ncc(C(=O)N3[C@@H]4CC[C@H]3CC(N(C)C)C4)s2)c1OC (stereo partly shown) [Example 344] | 30 nM
45 | [2H]C([2H])([2H])NC(=O)c1nnc(NC(=O)C2CC2)cc1Nc1cccc(-c2cnn(CC(=O)NCCOC)n2)c1OC [Example 426, 6-(cyclopropanecarboxamido)-4-((2-methoxy-3-(2-(2-((2-methoxyethyl)amino)-2-oxoethyl)-2H-1,2,3-triazol-4-yl)phenyl)amino)-N-trideuteromethylpyridazine-3-carboxamide] | 30 nM
46 | [2H]C([2H])([2H])NC(=O)c1nnc(NC(=O)C2CC2)cc1Nc1cccc(-c2cc(C(=O)N3CCN(CCO)CC3)n(C)n2)c1OC [Example 476] | 60 nM
47 | [2H]C([2H])([2H])NC(=O)c1nnc(NC(=O)C2CC2)cc1Nc1cccc(-c2ncc(CC(=O)NCCOC)s2)c1OC [Example 255] | 620 nM
48 | [2H]C([2H])([2H])NC(=O)c1nnc(NC(=O)C2CC2)cc1Nc1cccc(-c2nc(CN3CCNCC3)no2)c1OC [Example 126] | 630 nM
49 | [2H]C([2H])([2H])NC(=O)c1nnc(NC(=O)C2CC2)cc1Nc1cccc(-c2cc(C(=O)N3CCC(N4CCN(CCO)CC4)CC3)n(C)n2)c1OC [Example 524] | 3400 nM
50 | [2H]C([2H])([2H])NC(=O)c1nnc(NC(=O)C2CC2)cc1Nc1cccc(-c2nc(CN3CCC(C)CC3)no2)c1OC [Example 211] | 440 nM
51 | COc1c(Nc2cc(NC(=O)C3CC3)nnc2C(N)=O)cccc1-c1ncc(C(=O)NC2CCCCC2)s1 [Example 396] | 120 nM
52 | [2H]C([2H])([2H])NC(=O)c1nnc(NC(=O)C2CC2)cc1Nc1cccc(-c2nc([C@@H](C)NS(C)(=O)=O)no2)c1OC [Example 195] | 720 nM
53 | [2H]C([2H])([2H])NC(=O)c1nnc(NC(=O)C2CC2)cc1Nc1cccc(-c2ncc(CNC(=O)CC#N)s2)c1OC [Example 264] | 1550 nM
54 | [2H]C([2H])([2H])NC(=O)c1nnc(NC(=O)C2CC2)cc1Nc1cccc(-c2ncc(C(=O)N3CCN(CCO)CC3)s2)c1OC [Example 269] | 40 nM
55 | [2H]C([2H])([2H])NC(=O)c1nnc(NC(=O)C2CC2)cc1Nc1cccc(-c2ncc(NC(=O)COC)s2)c1OC [Example 283] | 360 nM
